The source of these data is patent US10995071B2, “Method for producing a polymorphic form of 3-[5-amino-4-(3-cyanobenzoyl)-pyrazol-1-yl]-N-cyclopropyl-4-methylbenzamide” (MEREO BIOPHARMA 1 LIMITED, priority 2016, dated 2021).

Common to all, as to format: physicochemical
A short description of data set [1]: Variable temperature XRPD study. The procedure: The sample was placed in Anton-Paar TTK 450 chamber at 25° C. The temperature was controlled in-situ through the measurement files: p2853-vt, LRP-1301-39-01.dql, LRP-1301-42-01.dql, LRP-1301-42-02.dql. The sample was heated from 25° C. to 200° C. at 1° C./min. XRPD data were collected from 30° C. to 200° C. every 10° C. Approximately 40 mg of the sample was placed in a Ni-coated sample holder under ambient conditions. The sample was loaded at 25° C.
At 200° C., changes (shifts) in peak position in the high 2-theta region were observed. This may be attributed to the thermal expansion effect.

The nature of data set [2]: Solubility profile of the polymorphic form.
Data set [3] is described as follows: Dissolution rate comparison of Form A and Form B in size 1 capsules (FIG. 8). Conditions: 50 mg drug substance/capsule, milled to D50 1-10 μm, compared with Form A. The source says: The products is milled to D50 1-10 μm.
Data set [4] in a line: Thermodynamic stability of the polymorphic form.
Data set [5] is described as follows: Hygroscopicity of the polymorphic form. Particulars: crystalline anhydrous form.

Each structure is given as a SMILES string.

For `Cc1ccc(C(=O)NC2CC2)cc1-n1ncc(C(=O)c2cccc(C#N)c2)c1N` [Form A, 3-[5-amino-4-(3-cyanobenzoyl)-pyrazol-1-yl]-N-cyclopropyl-4-methylbenzamide], the “temperature of conversion to Form B on heating” value in data set [1] (heated from 25° C. to 200° C. at 1° C./min) was “above 100 °C”.
For the compound `Cc1ccc(C(=O)NC2CC2)cc1-n1ncc(C(=O)c2cccc(C#N)c2)c1N` [Form B, 3-[5-amino-4-(3-cyanobenzoyl)-pyrazol-1-yl]-N-cyclopropyl-4-methylbenzamide], the solubility profile result in data set [2] is “favourable solubility profile”. Further, the dissolution rate result in data set [3] is “higher dissolution rate than Form A”. In data set [1] (cooled to room temperature (20° C.)), the “form by XRPD after heating to 200° C. and cooling to room temperature” value is recorded as “remained unchanged”. For the same compound, the thermodynamic stability result in data set [4] was “thermodynamically stable”. Also, the hygroscopicity result in data set [5] is “non-hygroscopic”.
